Laboratory results published in the supplement of paper PMC10307832.

How the values were obtained:
Test in all cases: relative viability (nuclei count vs DMSO), 5 days (fraction); higher = more cells survive
Neratinib + Pictilisib = compound: CCOc1cc2ncc(C#N)c(Nc3ccc(OCc4ccccn4)c(Cl)c3)c2cc1NC(=O)/C=C/CN(C)C [Neratinib] + CS(=O)(=O)N1CCN(Cc2cc3nc(-c4cccc5[nH]ncc45)nc(N4CCOCC4)c3s2)CC1 [Pictilisib] (partner 1 µM)
Method in brief: (§1)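 Lung cancer cell lines, seeded in 1536-well plates, were treated the following day by pin tool with a single drug or with five library-drug doses (not always all listed) in √10 steps on top of a fixed anchor-drug dose. Cells were fixed and nuclei stained in one step after 5 days, and nuclei were counted. Relative viability is the nuclei count for treated wells divided by that for vehicle wells, reported as medians of duplicate plates.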

Neratinib + Crizotinib = compound: CCOc1cc2ncc(C#N)c(Nc3ccc(OCc4ccccn4)c(Cl)c3)c2cc1NC(=O)/C=C/CN(C)C [Neratinib] + C[C@@H](Oc1cc(-c2cnn(C3CCNCC3)c2)cnc1N)c1c(Cl)ccc(F)c1Cl [Crizotinib] (partner 1 µM)
Method in brief: as §1

Neratinib + Dasatinib = compound: CCOc1cc2ncc(C#N)c(Nc3ccc(OCc4ccccn4)c(Cl)c3)c2cc1NC(=O)/C=C/CN(C)C [Neratinib] + Cc1nc(Nc2ncc(C(=O)Nc3c(C)cccc3Cl)s2)cc(N2CCN(CCO)CC2)n1 [Dasatinib] (partner 0.075 µM)
Method in brief: as §1

Neratinib + Vorinostat = compound: CCOc1cc2ncc(C#N)c(Nc3ccc(OCc4ccccn4)c(Cl)c3)c2cc1NC(=O)/C=C/CN(C)C [Neratinib] + O=C(CCCCCCC(=O)Nc1ccccc1)NO [Vorinostat] (partner 1 µM)
Method in brief: as §1

Row | Cell Line | relative viability (Neratinib + Pictilisib; first compound 0.01 µM) | relative viability (Neratinib + Pictilisib; first compound 0.03162 µM) | relative viability (Neratinib + Pictilisib; first compound 0.1 µM) | relative viability (Neratinib + Pictilisib; first compound 0.3162 µM) | relative viability (Neratinib + Pictilisib; first compound 1 µM) | relative viability (Neratinib + Crizotinib; first compound 0.01 µM) | relative viability (Neratinib + Crizotinib; first compound 0.03162 µM) | relative viability (Neratinib + Crizotinib; first compound 0.1 µM) | relative viability (Neratinib + Crizotinib; first compound 0.3162 µM) | relative viability (Neratinib + Crizotinib; first compound 1 µM) | relative viability (Neratinib + Dasatinib; first compound 0.01 µM) | relative viability (Neratinib + Dasatinib; first compound 0.03162 µM) | relative viability (Neratinib + Dasatinib; first compound 0.3162 µM) | relative viability (Neratinib + Dasatinib; first compound 1 µM) | relative viability (Neratinib + Vorinostat; first compound 0.01 µM) | relative viability (Neratinib + Vorinostat; first compound 0.03162 µM) | relative viability (Neratinib + Vorinostat; first compound 0.1 µM) | relative viability (Neratinib + Vorinostat; first compound 0.3162 µM) | relative viability (Neratinib + Vorinostat; first compound 1 µM) | relative viability (Neratinib + Dasatinib; first compound 0.1 µM)
1 | 201T | 0.728 | 0.727 | 0.667 | 0.662 | 0.756 | 1.08 | 0.974 | 0.861 | 1.06 | 0.959 | 0.629 | 0.539 | 0.49 | 0.6 | 0.978 | 0.95 | 0.783 | 0.969 | 0.849 | –
2 | A549 | 0.608 | 0.409 | 0.526 | 0.323 | 0.119 | 1 | 0.796 | 0.713 | 0.68 | 0.187 | – | – | – | – | – | – | – | – | – | –
3 | A-427 | 0.952 | 0.738 | 0.773 | 0.675 | 0.62 | 1.07 | 0.936 | 0.819 | 0.924 | 0.566 | 0.895 | 0.74 | 0.673 | 0.571 | 0.958 | – | 0.849 | – | 0.857 | 0.734
4 | ABC-1 | 0.783 | 0.582 | 0.672 | 0.666 | 0.387 | 1.47 | 0.954 | 1.06 | 0.668 | 0.537 | 0.638 | – | 0.455 | 0.349 | 1.57 | – | 0.813 | 1.13 | 0.713 | 0.593
5 | BEN | 0.627 | 0.665 | 0.495 | 0.479 | 0.441 | 0.849 | 1.1 | 0.869 | 0.762 | 0.509 | 0.329 | 0.305 | 0.3 | 0.414 | 0.562 | 0.596 | 0.606 | 0.552 | 0.43 | 0.319
6 | CAL-12T | 0.491 | 0.548 | 0.362 | 0.396 | 0.218 | 0.84 | 0.945 | 0.408 | 0.256 | 0.206 | 0.325 | 0.475 | 0.13 | 0.122 | 0.802 | 0.835 | 0.553 | 0.436 | 0.198 | 0.212
7 | COR-L23 | – | – | 0.739 | 0.644 | 0.257 | 0.853 | 0.678 | 0.589 | 0.564 | 0.503 | 0.558 | 0.602 | 0.439 | 0.308 | 0.466 | 0.468 | 0.486 | 0.449 | 0.235 | 0.489
8 | COR-L 105 | 0.455 | 0.412 | 0.377 | 0.31 | 0.312 | 0.978 | 0.828 | 0.531 | 0.201 | 0.22 | 0.288 | 0.353 | 0.146 | 0.164 | 0.781 | 0.817 | 0.5 | 0.505 | 0.33 | 0.236
9 | Calu-6 | 0.924 | 1.01 | 0.891 | 0.788 | 0.405 | 0.905 | 0.939 | 0.737 | 0.692 | 0.422 | – | – | – | – | – | – | – | – | – | –
10 | ChaGo-K-1 | 0.668 | 0.781 | 0.689 | 0.639 | 0.614 | 1.3 | 1.24 | 1.14 | 1.02 | 0.845 | 0.561 | 0.62 | 0.571 | 0.544 | 0.9 | 0.814 | 0.675 | 0.799 | 0.799 | 0.555
11 | EKVX | 0.476 | 0.387 | 0.32 | 0.163 | 0.129 | 1.32 | 1.08 | 0.823 | 0.452 | 0.211 | 0.632 | 0.676 | 0.243 | 0.253 | 0.889 | 0.801 | 0.498 | 0.276 | 0.308 | 0.443
12 | EMC-BAC-2 | 0.584 | 0.558 | 0.443 | 0.468 | 0.371 | 0.828 | 0.817 | 0.635 | 0.709 | 0.407 | 0.368 | 0.342 | 0.33 | 0.248 | 0.898 | 0.565 | 0.447 | 0.46 | 0.351 | 0.302
13 | EPLC-272H | 0.376 | 0.387 | 0.316 | 0.338 | 0.307 | 0.997 | 0.964 | 0.799 | 0.613 | 0.553 | – | 0.457 | 0.208 | 0.152 | 0.287 | 0.498 | 0.415 | 0.332 | 0.269 | 0.284
14 | H3255 | 0.453 | 0.469 | 0.301 | 0.117 | 0.109 | 0.836 | 0.838 | 0.671 | 0.243 | 0.164 | 0.38 | 0.392 | 0.195 | – | 0.826 | 0.826 | 0.65 | 0.509 | 0.191 | 0.283
15 | HARA | 0.494 | 0.294 | 0.362 | 0.262 | 0.336 | 1.19 | 1.09 | 0.731 | 0.782 | 0.489 | 0.303 | 0.312 | 0.155 | 0.148 | 0.584 | 0.656 | – | 0.577 | 0.355 | 0.196
16 | HCC-15 | 0.824 | 0.809 | 0.712 | 0.781 | 0.618 | 0.843 | 0.906 | 0.829 | 0.707 | 0.648 | 0.655 | 0.676 | 0.644 | 0.517 | 0.954 | 0.85 | 0.811 | 0.724 | 0.672 | 0.555
17 | HCC-44 | 0.852 | 0.561 | 0.655 | 0.642 | 0.643 | 0.821 | 0.8 | 0.727 | 0.806 | 0.851 | – | – | – | – | 1.11 | 1.09 | 1.12 | 1.1 | 1.09 | –
18 | HCC-78 | 0.184 | 0.233 | 0.215 | 0.215 | 0.182 | 0.325 | 0.3 | 0.284 | 0.264 | 0.225 | 0.5 | 0.363 | 0.292 | 0.276 | 0.547 | 0.408 | 0.352 | 0.362 | 0.28 | 0.342
